The subject of assay [1] is Haemophilus influenzae. The experiment in a line: Antimicrobial activity against Haemophilus influenzae ATC 12699 compound preincubated with 0.1 M hydrochoric acid for 40 mins measured after 24 hrs by broth microdilution method. It is filed as functional. In general terms: In broth dilution the organism is exposed to a series of concentrations in liquid medium.
Assay [2] relates to Burkholderia cepacia. Description: Antimicrobial activity against Burkholderia cepacia after 24 hrs by broth microdilution method. The class given is functional, organism-based.
The test system of assay [3] is Haemophilus influenzae. Description: Antimicrobial activity against Haemophilus influenzae ATC 12699 after 24 hrs by broth microdilution method. It is filed as functional. The conditions noted are these: ATC 12699, 24 h.
The test system of assay [4] is Staphylococcus aureus. Description: Antimicrobial activity against Staphylococcus aureus ACC 601065 compound preincubated with 0.1 M hydrochoric acid for 40 mins measured after 24 hrs by broth microdilution method. It is filed as functional.
The subject of assay [5] is Staphylococcus aureus. Description: Antimicrobial activity against Staphylococcus aureus ACC 601065 after 24 hrs by broth microdilution method. The conditions noted are these: ACC 601065, 24 h. The class given is functional.
The test system of assay [6] is Streptococcus pyogenes. Description: Antimicrobial activity against Streptococcus pyogenes compound preincubated with 0.1 M hydrochoric acid for 40 mins measured after 24 hrs by broth microdilution method. It is filed as functional.
In assay [7] the test system is Streptococcus pyogenes. The experiment in a line: Antimicrobial activity against Streptococcus pyogenes after 24 hrs by broth microdilution method. It is filed as functional.
For assay [8], the system named is Burkholderia cepacia. Description: Antimicrobial activity against Burkholderia cepacia compound preincubated with 0.1 M hydrochoric acid for 40 mins measured after 24 hrs by broth microdilution method. It is filed as functional, organism-based.
For assay [9], the system named is Escherichia coli. Description: Binding affinity to Escherichia coli MRE 600 50S ribosome in 2M LiCl in buffered D2O at pH 7.4 by NMR analysis.
For assay [10], the system named is Escherichia coli. The experiment in a line: Binding affinity to Escherichia coli MRE 600 30S ribosome in 2M LiCl in buffered D2O at pH 7.4 by NMR analysis.

Values after ≈ are worked out from the molar mass of the structure shown. Active and inactive are the calls of the source. The rule behind the calls is not given here.

Regarding `CC[C@H]1OC(=O)[C@H](C)[C@@H](O[C@H]2C[C@@](C)(OC)[C@@H](O)[C@H](C)O2)[C@H](C)[C@@H](O[C@@H]2O[C@H](C)C[C@H](N(C)C)[C@H]2O)[C@](C)(O)C[C@@H](C)C(=O)[C@H](C)[C@@H](O)[C@]1(C)O` [ERYTHROMYCIN], the MIC was > 4 µg/mL in the assay with Haemophilus influenzae [1]; 2.2 µg/mL (≈ 3 µM) with Haemophilus influenzae [3]; > 8 µg/mL with Staphylococcus aureus [4]; 0.9 µg/mL (≈ 1.23 µM) against Staphylococcus aureus [5]; 1 µg/mL (≈ 1.36 µM) in the assay on Streptococcus pyogenes [6]; 0.2 µg/mL (≈ 0.273 µM) with Streptococcus pyogenes [7]. The MIC entry in the assay with Burkholderia cepacia [2] and in the assay on Burkholderia cepacia [8] was “inactive” each time.

On to `CC[C@H]1OC(=O)[C@H](C)[C@@H](O[C@H]2C[C@@](C)(OC)[C@@H](O)[C@H](C)O2)[C@H](C)[C@@H](O[C@@H]2O[C@H](C)C[C@H](N(C)C)[C@H]2O)[C@](C)(OC)C[C@@H](C)C(=O)[C@H](C)[C@@H](O)[C@]1(C)O` [CLARITHROMYCIN], for which the MIC was 1.8 µg/mL (≈ 2.41 µM) with Haemophilus influenzae [1]; 0.6 µg/mL (≈ 0.802 µM) against Haemophilus influenzae [3]; 0.9 µg/mL (≈ 1.2 µM) against Staphylococcus aureus [4]; 0.6 µg/mL (≈ 0.802 µM) against Staphylococcus aureus [5]; 0.3 µg/mL (≈ 0.401 µM) against Streptococcus pyogenes [6]; 0.2 µg/mL (≈ 0.267 µM) in the assay on Streptococcus pyogenes [7]. Moreover, the MIC entry with Burkholderia cepacia [2] and with Burkholderia cepacia [8] was “inactive” in each case.

Take `CC[C@H]1OC(=O)[C@H](C)[C@@H](O[C@H]2C[C@@](C)(OC)[C@@H](O)[C@H](C)O2)[C@H](C)[C@@H](O[C@@H]2O[C@H](C)C[C@H](N(C)C)[C@H]2O)[C@](C)(O)C[C@@H](C)C(=O)[C@H](C)[C@@H](O)[C@H]1C` [BERYTHROMYCIN]: the result in the assay on Escherichia coli [9] was Active. For the same compound, the result in the assay with Escherichia coli [10] was inactive. For the same compound, the MIC was determined as 3.6 µg/mL (≈ 5.01 µM) in the assay on Haemophilus influenzae [1]; 2.3 µg/mL (≈ 3.2 µM) against Haemophilus influenzae [3]; 1.4 µg/mL (≈ 1.95 µM) against Staphylococcus aureus [4]; 0.7 µg/mL (≈ 0.975 µM) in the assay with Staphylococcus aureus [5]; 0.3 µg/mL (≈ 0.418 µM) in the assay with Streptococcus pyogenes [6]; 0.2 µg/mL (≈ 0.279 µM) against Streptococcus pyogenes [7]. Further, the MIC entry with Burkholderia cepacia [2] and with Burkholderia cepacia [8] was “inactive” in each case.

The record behind these values is ChEMBL document CHEMBL3217711, “Erythromycin B: conformational analysis and antibacterial activity” (2011).
